ChEMBL document CHEMBL1152081, “1,25-Dihydroxyvitamin D3 Hybrid Analogs with Structural changes at both the A-ring and the C,D-ring side-chain. II” (1995)

Tests used:
Assay type in all cases: functional
[1] = species on record: Rattus norvegicus; assay: Stimulation of calcium currents by the compound in rat osteosarcoma cells at a concentration of 5.0 nM
[2] = species on record: Rattus norvegicus; assay: Stimulation of calcium currents by the compound in rat osteosarcoma cells at a concentration of 0.5 nM
[3] = species on record: Rattus norvegicus; assay: Stimulation of calcium currents by the compound in rat osteosarcoma cells at a concentration of 0.05 nM
[4] = species on record: Rattus norvegicus; assay: Stimulation of calcium currents by the compound in rat osteosarcoma cells at a concentration of 0.01 nM

SMILES	Ca2+ current [1] [mV]	Ca2+ current [2] [mV]	Ca2+ current [3] [mV]	Ca2+ current [4] [mV]
C=C1/C(=C\C=C2/CCC[C@]3(C)C([C@@H](C)CSc4cccc(C(C)(C)O)c4)CC[C@@H]23)C[C@H](O)C[C@H]1CO (stereo not given in full)	8.58	6.24		
C=C1/C(=C\C=C2/CCC[C@]3(C)[C@@H]([C@H](C)CCCC(C)(C)O)CC[C@@H]23)C[C@@H](O)C[C@@H]1O [CALCITRIOL]	9.79	5.73	1.78	
C=C1/C(=C\C=C2/CCC[C@]3(C)C([C@@H](C)COCCCC(C)(C)O)CC[C@@H]23)C[C@@H](O)C[C@@H]1CO (stereo not given in full)	8.99	8.8	7.33	5.42
C=C1/C(=C\C=C2/CCC[C@]3(C)C([C@@H](C)COCCCC(C)(C)O)CC[C@@H]23)C[C@H](O)C[C@H]1CO (stereo not given in full)	8.93	10	7.3	4.94
C=C1/C(=C\C=C2/CCC[C@]3(C)C([C@@H](C)CSc4cccc(C(C)(C)O)c4)CC[C@@H]23)C[C@@H](O)C[C@@H]1CO (stereo not given in full)	11.18	6.6		
